Reference: patent publication US9700578B2, “Use of nitrite salts for the treatment of cardiovascular conditions” (The United States of America as represented by the …, priority 2003, dated 2017)
Where “and” joins values, the source holds several entries; their conditions need not be identical. Equal entries are not always repeated. Where two headings read alike, the source gives them in different places.

Assays:
[1] = molecular target: hemoglobin (Homo sapiens, UniProt P68871+P69905)
[2] = tested on: hypoxic-induced pulmonary hypertension; settings: for decrease in pulmonary artery pressure from hypoxic level: FiO2 0.12, nebulized 270 μmol/minute for 20 minutes, n=7
[3] = tested on: deoxygenated erythrocytes
[4] = tested on: hypoxic-induced pulmonary hypertension; experiment: Comparison of inhaled nitrite and NO gas during hypoxic-induced pulmonary vasoconstriction: efficacy and duration; assay type: in vivo, newborn lambs; settings: for reduction (correction) of hypoxic-induced pulmonary hypertension: hypoxia, NO gas 20 ppm or nitrite aerosol for 20 minutes
From the text: NO gas was introduced into the inspiratory limb of the breathing circuit. The inspired concentration of NO was continuously measured by chemiluminescence (CLD 700 AL, Eco Physics Inc, Ann Arbor, Mich.) in the inspiratory limb of the ventilator loop.
efficacy and duration of effect. This protocol was designed to compare the efficacy of nitrite with the clinical standard, 20 ppm inhaled NO gas. […] A second purpose was to determine the duration of effect of a short nitrite nebulization versus NO gas inhalation on hemodynamic and physiological measurements during prolonged hypoxic-induced pulmonary vasoconstriction. After baseline measurements were performed, the lambs were made hypoxic as described above for 35 minutes. Ten minutes after initiation of hypoxia, a 20-minute period of NO gas inhalation was initiated (20 ppm), with continuation of hypoxia for 5 minutes after cessation of NO gas delivery. Lambs were then allowed to recover for one hour. Again, after baseline measurements were made, a second 90-minute period of hypoxia was initiated.

[5] = tested on: aortic ring preparations; settings: cited from earlier work
[6] = tested on: U46619-induced normoxic pulmonary hypertension; assay type: in vivo; settings: normoxic, U46619 infusion, nebulized nitrite, n=6
[7] = tested on: right middle cerebral artery vasospasm
Method: An autologous arterial blood clot was placed around the right middle cerebral artery (R MCA) of 14 anesthetized Cynomolgus monkeys at day 0. […] Cerebral arteriogram was performed before clot placement and on days 7 and 14, for assessment of DCV. Arteriographic vasospasm was defined as a 25% or greater reduction in the proximal 14 mm of the R MCA area as measured on the AP projection of the cerebral arteriogram (blinded assessment). Mean arterial blood pressure was measured and blood samples were collected daily from day 0; the cerebral spinal fluid samples were collected on day 0, 7, and 14.

[8] = tested on: myocardial ischemia-reperfusion injury
Method: Briefly, mice were anesthetized with intraperitoneal injections of ketamine (50 mg/kg) and pentobarbital sodium (50 mg/kg). The animals were then attached to a surgical board with their ventral side up. […] The mice were supplemented with 100% oxygen via the ventilator side port. A median sternotomy was performed using an electric cautery and the proximal left main coronary artery was visualized and completely ligated with 7-0 silk suture mounted on a tapered needle (BV-1 ethicon). In the initial experiments of myocardial infarct size coronary occlusion was maintained for 30-minutes followed by removal of suture and reperfusion for 24 hours. […] In these experiments, two-dimensional echocardiography was performed at baseline and again at 48 hours of reperfusion.
At 24 hours of reperfusion, the mice were anesthetized as described previously, intubated, and connected to a rodent ventilator. A catheter (PE-10 tubing) was placed in the common carotid artery to allow for Evans Blue dye injection. A median sternotomy was performed and the left main coronary artery was re-ligated in the same location as before Evans Blue dye (1.2 mL of a 2.0% solution, Sigma Chemical Co.) was injected into the carotid artery catheter into the heart to delineate the ischemic zone from the nonischemic zone. The heart was rapidly excised and serially sectioned along the long axis in five, 1 mm thick sections that were then incubated in 1.0% 2,3,5-triphenyltetrazolium chloride (Sigma Chemical Co.) for 5 minutes at 37° C. to demarcate the viable and nonviable myocardium within the risk zone.
Ventricular parameters were measured using leading-edge technique. M-mode (sweep speed=200 mm/sec) echocardiograms were captured from parasternal, short and long-axis 2D views of the left ventricle (LV) at the mid-papillary level. LV percent fractional shortening (FS) was calculated according to the following equation: LV % FS=((LVEDD−LVESD)/LVEDD)×100. All data were calculated from 10 cardiac cycles per experiment.

[9] = 200 μM regional concentration, transit time less than 10 seconds
[10] = 48 nmoles into left ventricular cavity 5 min prior to reperfusion, versus 48 nmoles nitrate
[11] = 45 minutes ischemia, 48 hours reperfusion

## O=NO [sodium nitrite]
[1]; 36 μmol/min, at rest, baseline 55.7±11.4
  iron-nitrosylated-hemoglobin in the ipsilateral antecubital vein during nitrite infusion: 693.4 ± 216.9 nM
[1]; [9]
  SNO-Hb produced across the forearm during exercise: ~200 nM
  iron-nitrosyl-hemoglobin produced across the forearm during exercise: approximately 750 nM
[2]
  decrease in pulmonary artery pressure from hypoxic level: ~60%
[2]; listed as nitrite
  decrease in pulmonary artery pressure from hypoxic level: ~60% and 63+/−3%
[2]; versus preceding ten minutes of hypoxia
  cardiac output, arterial oxyhemoglobin saturation and methemoglobin levels: did not change measurably
[3]; 21% and 100% oxygen, versus deoxygenated erythrocytes
  NO release on addition to oxygenated erythrocytes: significantly less NO
[3]; 100 and 200 μM nitrite, deoxygenated erythrocytes 660 and 1000 μM in heme, helium purged
  rate of NO production in the 5 mL reaction volume: 47 pM per second
[3]; PBS, same conditions
  NO release into the gas phase in buffer control: no release
[4]; baseline 2.1±0.1
  methemoglobin concentration after nitrite nebulization: 2.8±0.2%
[4]; hypoxia continued 60 minutes after nebulization
  duration of sustained vasodilation after discontinuation of inhalation: more than 60 minutes
[4]
  reduction (correction) of hypoxic-induced pulmonary hypertension: about 60%
[4]; listed as nitrite
  reduction (correction) of hypoxic-induced pulmonary hypertension: 60-70%
[5]; Furchgott et al. 1953
  nitrite concentration that stimulated vasodilation of aortic ring preparations: 100 µM
[5]; literature
  levels of nitrite shown to vasodilate in vitro: > 100,000 nM
[6]
  decrease in pulmonary artery pressure from infusion baseline: 23±6%
[7]; 45 mg/kg and 60 mg/kg per day
  blood levels of nitrite: 10 to 60 µM
  increases in blood methemoglobin concentrations: ≤ 2%
  methemoglobin formation: < 5%
[7]; 45 mg/kg and 60 mg/kg per day i.v. for 14 days, saline 45±5
  mean reduction in the R MCA area on day 7 after SAH: 8±9%
[7]; 14 days infusion
  systemic hypotension: without systemic hypotension
  toxicity: no clinical or pathological evidence of nitrite toxicity
[7]; nitrite infused animals, n=6
  development of significant vasospasm: no animals developed significant vasospasm
[8]; [10]
  reduction of myocardial infarct size per area-at-risk: 67%
  reduction of myocardial infarct size per left ventricle: 67%
[8]; [11]
  left ventricular fractional shortening versus vehicle group: significantly (p<0.02) greater
  myocardial ejection fraction versus baseline: remained essentially unchanged
